Starred links: 1 amine or outer side, 2 acyl side, 3 side chain; linkers in the order of their positions; H or OH if unused. Non-standard residues stand in square brackets, D forms with d. Residues, ends and D or L forms follow the SMILES beside them. *: point of attachment. Isobutyloxycarbonyl = CC(C)COC(=O)*; Hyp = O=C(O)[C@@H]1C[C@@H](O)CN1; X2 = CCCC(N[*:1])C(=O)C(=O)[*:2]; Tic = O=C(O)[C@@H]1Cc2ccccc2CN1; Chg = N[CH](C(=O)O)C1CCCCC1; Phg = N[CH](C(=O)O)c1ccccc1; Tle = CC(C)(C)[C@H](N)C(=O)O; Boc = CC(C)(C)OC(=O)*; CO = O=C([*:1])[*:2]; X1 = CC1(N*)CCCCC1; tBu = CC(C)(C)*
Experiments:
[1] = tested on: melanoma A375 tumors; conditions: melanoma A375 tumors implanted into the left ventricle of the heart; cited from earlier work
[2] = target: T1, Human Liver Cathepsin L (Homo sapiens, UniProt P07711); assay: Cathepsin L inhibition assay (kinetic, Z-Phe-Arg-pNA substrate); format: biochemical; conditions: Z-Phe-Arg-pNA 120 μM, enzyme 12 nM, pH 5.5, read at 410 nm
T1 construct: purchased Calbiochem 219402
Protocol: Cathepsin Assay Protocols:
• 1. 96-well Round or V-bottom microplates for dilutions • 2. 96-well COSTAR UV microplates for assay (COSTAR cat.#3635) • 3. Bio-Spin 6 Chromatography Columns (BIO-RAD cat.#732-6002). • 4. 12-75 mm test tubes • 5. Falcon 50 ml tubes • 6. Falcon 14 ml tubes • 7. 1.5 ml eppendorf tube • 8. ≦10 ml buffer reservoir Reagents: • 1. Enzyme: Cathepsin G, M.W.23,500, 10 μM stock. • 2. Substrate:Suc-Ala-Ala-Pro-Phe-pNA, M.W. 624.65, prep. 100 mM [62.465 mg/ml] stock. • 3. Buffer: [50 mM HEPES, 500 mM NaCl, 5 μM EDTA, pH 7.14], 5 μM DTT Instrument Settings: SpectraMax Plus • 1. Kinetic assay reading@405 nm • 2. Read interval: 30 seconds • 3. Time: 1 hour • 4. OD Min: −0.001 • 5. OD Max: 0.5 • 6. Data Mode: Absorbance • 7. e405=194.078 μM/O.D. Procedure: • 1. Add 73 μl of buffer to all wells. • 2. Add […] of buffer to (−E) controls. • 3. Add 7 μl of sample and/or DMSO for controls to appropriate wells. • 4. Prep. substrate: 100 mM (62.465 mg/ml) stock in 100% DMSO. • 5. Dilute 1:20 in buffer. 75 μl in 1.425 ml. 5 mM final. • 6. Add 20 μl of 5 mM substrate to all wells. 500 μM final. • 7. Dilute enzyme (1:50) in buffer; Add 120 μl to 5,880 μl buffer. 2×[200 nM] final. • 8. Add 100 μl of 2× [200 nM] enzyme to assigned wells, except (−E) controls. [100 nM] final. • 11. Vortex 20 seconds. Read@ 405 nM every 30 seconds for 1 hour on SpectraMax Plus • Endpoint assay reading plate@ 600 nM. Used for the detection of precipitation. Cathepsin H: Materials: • 1. 96-well Round or V-bottom microplates for dilutions • 2. 96-well COSTAR UV microplates for assay (COSTAR cat.#3635) • 3. Bio-Spin 6 Chromatography Columns (BIO-RAD cat.#732-6002) • 4. 12-75 mm test tubes • 5. Falcon 50 ml tubes • 6. Falcon 14 ml tubes • 7. 1.5 ml eppendorf tube • 8. ≧10 ml buffer reservoir Reagents: • 1. Enzyme: Cathepsin H, M.W.28,000, 9.07 μM stock. • 2. Substrate:H-Arg-pNA, M.W. 367.2, prep. 50 mM [18.36 mg/ml] stock. • 3. Buffer: [100 mM NaP04, 1 mM EDTA, 1 mM DTT, pH 6.5 Instrument Settings: SpectraMax Plus • 1. Kinetic assay reading@410 nM • 2. Read interval: 30 seconds • 3. Time: 1 hour • 4. OD Min: −0.001 • 5. OD Max: 0.05 • 6. Data Mode: Absorbance • 7. e410=188.415 μM/O.D. Km=108±5 μM Procedure: • 1. Prep. substrate: 50 mM (18.36 mg/ml) stock in 100% DMSO. • 2. Add 73 μl of buffer to all wells. • 3. Add 7 μl of sample to appropriate wells: a.) 100% DMSO for (+E) & (−E) controls. • 4. Add 100 μl of buffer to (−E) controls. • 5. Dilute substrate (1:20) in buffer; Add 140 μl to 2.66 ml buffer while vortexing. [2.5 mM] final. • 6. Add 20 μl of substrate to all wells. Vortex 3-5 seconds. [250 μM] final. • 7. Dilute enzyme (1:64.8) in buffer; Add 179 μl to 11.418 ml buffer. 2× [140 nM] final. • 8. Add 100 μl of 2× [140 nM] enzyme to assigned wells, except (−E) controls. [70 nM] final. • 9. Read@410 nM every 30 seconds for 1 hour on SpectraMax Plus Cathepsin L: Materials: • 1. 96-well Round or V-bottom microplates for dilutions • 2. 96-well COSTAR UV microplates for assay (COSTAR cat.#3635) • 3. Falcon 50 ml tubes • 4. Falcon 14 ml tubes • 5. 1.5 ml eppendorf tube • 6. 10 ml buffer reservoir Reagents: • 1. Enzyme: Calbiochem #219402: Cathepsin L, M.W.29,000, 11.62 μM stock. Lot#B45683 • 2. Substrate: Bachem #L-1242: Z-Phe-Arg-pNA, M.W. 612.09, prep. 4.8 mM [2.938 mg/ml] stock in 100% DMSO. • 3. Buffer: [100 mM NaP04, 1 mM EDTA, pH 5.5] Supplement buffer w/1 mM DTT, day of assay. Experiment #1: • Instrument settings: SpectraMax Plus microtiter plate reader (Molecular Devices, Sunnydale, Calif.) • 1. Kinetic assay reading@410 nM • 2. Read interval: 30 seconds • 3. Time: 1 hour • 4. OD Min: −0.001 • 5. OD Max: 0.05 • 6. Data Mode: Absorbance • 7. ε410=161.311 μM/O.D. Km=56±8 μM Procedure: • 1. Add 88 μl of buffer to all wells. • 2. Add 7 μl of sample or 100% DMSO to appropriate wells. • 3. Add 100 μl of buffer to (−E) controls. • 5. Add 5 μ 4.8 mM] substrate to all wells. [120 μM] final. • 6. Vortex 3-5 seconds. • 7. Dilute enzyme (1:483.87) in buffer; Add 24.8 μl to 12,000 μl buffer. 2×[24 nM] final. • 8. […]

T1 sequence (P07711 114-288 limits assumed): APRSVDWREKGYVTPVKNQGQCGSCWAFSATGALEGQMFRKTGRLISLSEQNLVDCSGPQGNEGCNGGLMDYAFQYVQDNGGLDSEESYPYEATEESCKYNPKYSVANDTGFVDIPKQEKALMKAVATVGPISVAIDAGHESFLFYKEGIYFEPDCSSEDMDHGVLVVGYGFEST
T1 sequence (P07711 292-333 limits assumed): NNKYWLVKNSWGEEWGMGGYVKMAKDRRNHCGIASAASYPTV

SMILES	distant bone metastasis to the femur and tibia [1]	Ki [2]
CN(C)C(=O)[C@H](Cc1ccccc1)NC(=O)[C@H]1O[C@@H]1C(=O)NCCc1ccccn1 [CLIK-148]	reduced distant bone metastasis	
CC(C)(C)OC(=O)N[C@H](C(=O)N1CCC[C@H]1C(=O)NC(CC1CCC1)C(=O)C(N)=O)C(C)(C)C (stereo partly shown)		1900 nM
C=CCNC(=O)C(=O)[C@H](CCCC)NC(=O)[C@@H]1[C@@H]2[C@H](CN1C(=O)[C@@H](NC(=O)NC1([C@H]3CCCS3(=O)=O)CCCCC1)C(C)(C)C)C2(C)C [drawing 672]		49 nM
CC(C)(C)OC(=O)N[C@H](C(=O)N1C[C@H]2[C@@H]([C@H]1C(=O)NC(CC1CC1)C(=O)C(N)=O)C(C)(C)C2(C)C)C1CCCCC1 (stereo partly shown)		220 nM
CC(=O)N[C@@H](CC(C)C)C(=O)N[C@@H](CC(C)C)C(=O)N[C@H](C=O)CCCNC(=N)N [drawing 689]		8 nM
CC1([C@H](NC(=O)NC2(C3CCCS3(=O)=O)CCCCC2)C(=O)N2C[C@H]3[C@@H]([C@H]2C(=O)N[C@@H](CCC2CC2)C(=O)C(=O)NC2CC2)C3(C)C)CCCCC1 (stereo partly shown)		24 nM
CC(C)(C)OC(=O)N[C@H](C(=O)N1CC2CCCC2[C@H]1C(=O)NC(CC1CC1)C(=O)C(N)=O)C1CCCCC1 (stereo partly shown)		14 nM
CCCC(NC(=O)[C@@H]1Cc2ccccc2CN1C(=O)[C@@H](NC(=O)OC(C)(C)C)C1CCCCC1)C(=O)C(=O)NCC(=O)N[C@H](C(=O)NC)c1ccccc1 (stereo partly shown) (Boc-[Chg][Tic][X2]G[Phg]-NHMe)		36 nM
CC(C)(C)OC(=O)N[C@H]1CCCCCCCC[C@@H](C(=O)C(N)=O)NC(=O)[C@@H]2[C@@H]3[C@H](CN2C1=O)C3(C)C		550 nM
CCCC[C@H](NC(=O)[C@@H]1[C@@H]2[C@H](CN1C(=O)[C@@H](NC(=O)NC1([C@H]3CCN(C)S3(=O)=O)CCCCC1)C(C)(C)C)C2(C)C)C(=O)C(=O)NC1CC1		40 nM
CC(C)(C)NC(=O)N[C@H]1CCCCCCCCCC[C@@H](C(=O)C(N)=O)NC(=O)[C@@H]2[C@@H]3[C@H](CN2C1=O)C3(C)C		300 nM
CCCC(NC(=O)C(CC(C)C)NC(=O)C(NC(=O)OCC(C)C)C1CCCCC1)C(=O)C(=O)NCC(=O)NC(C(N)=O)c1ccccc1 (stereo not shown) (Isobutyloxycarbonyl-[Chg]L[X2]G[Phg]-NH2; configuration not given here)		2 nM
CC(=O)N[C@@H](CC(C)C)C(=O)N[C@@H](CC(C)C)C(=O)N[C@H](C=O)CCCNC(=N)N [drawing 688]		1.9 nM
CCCC(NC(=O)[C@@H]1C[C@@H]2CN1C(=O)C(C1CCCCC1)NC(=O)Cc1cccc(c1)OCCCC(C)(C)C2)C(=O)C(N)=O (stereo partly shown)		17 nM
C=CCNC(=O)C(=O)[C@@H]1CCCCCCCCC[C@H](NC(=O)N[C@H](CN2CCC(C)(C)CC2=O)C(C)(C)C)C(=O)N2C[C@H]3[C@@H]([C@H]2C(=O)N1)C3(C)C		366 nM
CC1(C)[C@@H]2[C@H]3C(=O)N[C@H](C(=O)C(=O)NC4CC4)CCCCCCCCC[C@H](NC(=O)NC4(C5CCCS5(=O)=O)CCCCC4)C(=O)N3C[C@@H]21 (stereo partly shown)		110 nM
COc1ccc2c(O[C@@H]3C[C@H]4C(=O)N[C@]5(C(=O)O)CC5/C=C\CCCCC[C@H](NC(=O)OC5CCCC5)C(=O)N4C3)cc(-c3csc(NC(C)C)n3)nc2c1 (stereo partly shown)		38 nM
C=CCNC(=O)C(=O)[C@H](CCC1CC1)NC(=O)[C@@H]1[C@@H]2[C@H](CN1C(=O)[C@@H](NC(=O)NC1(CS(=O)(=O)C(C)(C)C)CCCCC1)C(C)(C)C)C2(C)C [drawing 670]		45 nM
CCCC(NC(=O)[C@@H]1C[C@@H](OC(C)(C)C)CN1C(=O)[C@@H](NC(=O)NC1(C)CCCCC1)C(C)(C)C)C(=O)C(=O)NCC(=O)N[C@H](C(=O)N(C)C)c1ccccc1 (stereo partly shown) ({X1-CO}-[Tle][Hyp](tBu)[X2]G[Phg]-NMe2)		170 nM
CC(C)(C)OC(=O)N[C@H](C(=O)N1c2ccccc2C[C@H]1C(=O)NC(CC1CC1)C(=O)C(N)=O)C1CCCCC1 (stereo partly shown)		20 nM
C=CCNC(=O)C(=O)C(CC1CC1)NC(=O)[C@@H]1[C@@H]2[C@H](CN1C(=O)[C@@H](NC(=O)N[C@H](CN1C(=O)CC(C)(C)CC1=O)C(C)(C)C)C(C)(C)O)C2(C)C (stereo partly shown)		20 nM
C=CCNC(=O)C(=O)[C@@H]1CCCCCCCCC[C@H](NC(=O)NC2(CS(=O)(=O)C(C)(C)C)CCCCC2)C(=O)N2C[C@H]3[C@@H]([C@H]2C(=O)N1)C3(C)C [drawing 699]		60 nM
C=CCNC(=O)C(=O)[C@@H]1CCCCCCCCC[C@H](NC(=O)NC2(CS(=O)(=O)C(C)(C)C)CCCCC2)C(=O)N2C[C@H]3[C@@H]([C@H]2C(=O)N1)C3(C)C [drawing 653]		10 nM
CC1([C@H](NC(=O)NC2(CS(=O)(=O)C(C)(C)C)CCCCC2)C(=O)N2C[C@H]3[C@@H]([C@H]2C(=O)N[C@@H](CCC2CC2)C(=O)C(=O)NC2CC2)C3(C)C)CCCCC1		12 nM
CCCC(NC(=O)[C@@H]1[C@@H]2CCN1C(=O)[C@H](C(C)(C)C)NC(=O)Cc1cccc(c1)OCCCO2)C(=O)C(=O)NCC(=O)N[C@H](C(=O)N(C)C)c1ccccc1 (stereo partly shown)		70 nM
CN(C)C(=O)[C@@H](NC(=O)CNC(=O)C(=O)C(CC1CC1)NC(=O)[C@@H]1[C@H]2CC(C)(C)O[C@H]2CN1C(=O)[C@@H](NC(=O)OC(C)(C)C)C1CCCCC1)c1ccccc1 (stereo partly shown)		97 nM
C=CCNC(=O)C(=O)[C@H](CCC1CC1)NC(=O)[C@@H]1[C@@H]2[C@H](CN1C(=O)[C@@H](NC(=O)NC1(CS(=O)(=O)C(C)(C)C)CCCCC1)C(C)(C)C)C2(C)C [drawing 669]		40 nM
CC1C[C@H]2CN(C(=O)[C@@H](NC(=O)OC(C)(C)C)C3CCCCC3)[C@H](C(=O)NC(CC3CC3)C(=O)C(=O)NCC(=O)N[C@H](C(=O)N(C)C)c3ccccc3)[C@H]2C1 (stereo partly shown)		120 nM

Reference: patent publication US20060252698A1, “Compounds for inhibiting cathepsin activity” (priority 2005, published 2006)
